Source: patent publication US5644059A, “1,4-dihydropyridine derivatives and methods of producing the same” (Fujirebio Inc., priority 1990, dated 1997)

Each compound was assayed on platelet aggregation (assay: Test for platelet aggregation-inhibiting activity of rabbit (PAF-induced aggregation in platelet rich plasma)). Details: rabbit PRP, 37°C, 10 minutes incubation, aggregation by PAF (10 μl); test compound concentration not given.
Type: cell-based
Set-up: dose or concentration left out as unconfirmed
Method: 2. Test for platelet aggregation-inhibiting activity of rabit
A blood of a rabbit (Japanese white; male; 2.5-3.0 kg) was exsanguinated from a carotid of the rabbit, and nine parts of the blood were mixed with one part of a 3.8% aqueous solution of sodium citrate. The mixture was centrifuged at 1100 rpm at 20°C. for 15 minutes. The upper layer is a platelet rich plasma (PRP), and the lower layer was centrifuged at 2500 rpm at 20° C. for 10 minutes, so that a platelet poor plasma (PPP) was obtained.
10 μl of a solution of the compound to be tested was added to 200 μl of PRP, and the mixture was subjected to incubation at 37°C. for 10 minutes. To the mixture was added 10 μl of a platelet activating factor (PAF)(10 mg/ml). The agglutination was measured by Agricometer (NKK, PAT-4A).

Compound	Platelet Aggregation-Inhibiting Activity [%]
COC(=O)C1=C(C)NC(C)=C(C(=O)N[C@H](C(=O)OC(C)(C)C)C(C)C)C1c1cccc([N+](=O)[O-])c1 (single isomer, unassigned) [1 (Compound a)]	42.8
COC(=O)C1=C(C)NC(C)=C(C(=O)N[C@@H](C(=O)OC(C)(C)C)C(C)C)C1c1cccc([N+](=O)[O-])c1 (single isomer, unassigned) [2 (Compound a)]	25.5
COC(=O)C1=C(C)NC(C)=C(C(=O)N[C@H](C(=O)OC(C)(C)C)C(C)C)C1c1ccccc1Cl (single isomer, unassigned) [7 (Compound a)]	54.1
COC(=O)C1=C(C)NC(C)=C(C(=O)N[C@H](C(=O)OC(C)(C)C)C(C)C)C1c1ccccc1F (single isomer, unassigned) [13 (Compound a)]	37.7
COC(=O)C1=C(C)NC(C)=C(C(=O)N[C@H](C(=O)OC(C)(C)C)C(C)C)C1c1cccc(Cl)c1 (single isomer, unassigned) [18 (Compound a)]	33.8
COC(=O)C1=C(C)NC(C)=C(C(=O)N[C@H](C(=O)OC(C)(C)C)C(C)C)C1c1cccc(F)c1 (single isomer, unassigned) [19 (Compound a)]	35.4
COC(=O)C1=C(C)NC(C)=C(C(=O)N[C@H](C(=O)OC(C)(C)C)C(C)C)C1c1cccc(C#N)c1 (single isomer, unassigned) [22 (Compound a)]	20.2
COC(=O)C1=C(C)NC(C)=C(C(=O)N[C@H](C(=O)OC(C)(C)C)C(C)C)C1c1ccccc1 (single isomer, unassigned) [24 (Compound a)]	24.3
COC(=O)C1=C(C)NC(C)=C(C(=O)N[C@H](C(=O)OC(C)(C)C)C(C)C)C1c1ccccc1[N+](=O)[O-] (single isomer, unassigned) [27 (Compound a)]	33.3
COCCOC(=O)C1=C(C)NC(C)=C(C(=O)N[C@H](C(=O)OC(C)(C)C)C(C)C)C1c1cccc([N+](=O)[O-])c1 (single isomer, unassigned) [50 (Compound a)]	23.5
CC1=C(C(=O)NCC(=O)OC(C)(C)C)C(c2cccc([N+](=O)[O-])c2)C(C(=O)N[C@H](C(=O)OC(C)(C)C)C(C)C)=C(C)N1 (single isomer, unassigned) [52 (Compound a)]	29.2
COC(=O)C1=C(C)NC(C)=C(C(=O)N[C@@H](C(=O)OC(C)(C)C)C(C)C)C1c1cccc([N+](=O)[O-])c1 (stereo partly shown) [2 (Compound b)]	98.2
COC(=O)C1=C(C)NC(C)=C(C(=O)NCC(=O)OC(C)(C)C)C1c1cccc([N+](=O)[O-])c1 (stereo not shown) [Example 3, t-butyl 2-[N-[1,4-dihydro-2,6-dimethyl-5-methoxycarbonyl-4-(3-nitrophenyl)pyridine-3-carbonyl]amino]acetate]	100
COC(=O)C1=C(C)NC(C)=C(C(=O)NCC(=O)OC(C)(C)C)C1c1ccccc1Cl (stereo not shown) [Example 8, t-butyl 2-[N-[1,4-dihydro-2,6-dimethyl-5-methoxycarbonyl-4-(2-chlorophenyl)pyridine-3-carbonyl]-amino]acetate]	39.1
COC(=O)C1=C(C)NC(C)=C(C(=O)N[C@@H](C)C(=O)OC(C)(C)C)C1c1ccccc1Cl (stereo partly drawn) [Example 9, t-butyl 2-(S)-[N-[1,4-dihydro-2,6-dimethyl-5-methoxycarbonyl-4-(2-chlorophenyl)pyridine-3-carbonyl]amino]propionate]	29.8
COC(=O)C1=C(C)NC(C)=C(C(=O)N[C@H](C(=O)OC(C)(C)C)C(C)C)C1c1cccc(OC)c1 (stereo partly drawn) [Example 23, t-butyl 2-(S)-[N-[1,4-dihydro-2,6-dimethyl-5-methoxycarbonyl-4-(3-methoxyphenyl)pyridine-3-carbonyl]-amino]-3-methylbutylate]	33.6
COC(=O)C1=C(C)NC(C)=C(C(=O)NCC(=O)OC(C)(C)C)C1c1cccc(Cl)c1 (stereo not shown) [Example 32, t-butyl 2-[N-[1,4-dihydro-2,6-dimethyl-5-methoxycarbonyl-4-(3-chlorophenyl)pyridine-3-carbonyl]-amino]acetate]	100

Compound	Platelet Aggregation-Inhibiting Activity [%]
COC(=O)C1=C(C)NC(C)=C(C(=O)NCC(=O)OC(C)(C)C)C1c1ccccc1C#N (stereo not shown) [Example 33, t-butyl 2-[N-[1,4-dihydro-2,6-dimethyl-5-methoxycarbonyl-4-(2-cyanophenyl)pyridine-3-carbonyl]-amino]acetate]	94.2
COC(=O)C1=C(C)NC(C)=C(C(=O)NCC(=O)OC(C)(C)C)C1c1cccc(C#N)c1 (stereo not shown) [Example 34, t-butyl 2-[N-[1,4-dihydro-2,6-dimethyl-5-methoxycarbonyl-4-(3-cyanophenyl)pyridine-3-carbonyl]-amino]acetate]	100
COC(=O)C1=C(C)NC(C)=C(C(=O)NCC(=O)OC(C)(C)C)C1c1cccc(C)c1 (stereo not shown) [Example 35, t-butyl 2-[N-[1,4-dihydro-2,6-dimethyl-5-methoxycarbonyl-4-(3-methylphenyl)pyridine-3-carbonyl]-amino]acetate]	32.3
CCOC(=O)C1=C(C)NC(C)=C(C(=O)NCC(=O)OC(C)(C)C)C1c1cccc([N+](=O)[O-])c1 (stereo not shown) [Example 36, t-butyl 2-[N-[1,4-dihydro-2,6-dimethyl-5-ethoxycarbonyl-4-(3-nitrophenyl)pyridine-3-carbonyl]-amino]acetate]	100
CC1=C(C(=O)NCC(=O)OC(C)(C)C)C(c2cccc([N+](=O)[O-])c2)C(C(=O)OC(C)C)=C(C)N1 (stereo not shown) [Example 37, t-butyl 2-[N-[1,4-dihydro-2,6-dimethyl-5-isopropyloxycarbonyl-4-(3-nitrophenyl)pyridine-3-carbonyl]amino]acetate]	100
COCCOC(=O)C1=C(C)NC(C)=C(C(=O)NCC(=O)OC(C)(C)C)C1c1cccc([N+](=O)[O-])c1 (stereo not shown) [Example 38, t-butyl 2-[N-[1,4-dihydro-2,6-dimethyl-5-(2-methoxyethyloxycarbonyl)-4-(3-nitrophenyl)pyridine-3-carbonyl]amino]acetate]	100
COC(=O)C1=C(C)NC(C)=C(C(=O)NCC(=O)OC(C)(C)C)C1c1ccccc1C (stereo not shown) [Example 47, t-butyl 2-[N-[1,4-dihydro-2,6-dimethyl-5-methoxycarbonyl-4-(2-methylphenyl)pyridine-3-carbonyl]-amino]acetate]	32.7
CCOC(=O)C1=C(C)NC(C)=C(C(=O)N[C@H](C(=O)OC(C)(C)C)C(C)C)C1c1cccc([N+](=O)[O-])c1 (stereo partly drawn) [Example 48, t-butyl 2-(S)-[N-[1,4-dihydro-2,6-dimethyl-5-ethoxycarbonyl-4-(3-nitrophenyl)pyridine-3-carbonyl]amino]-3-methylbutylate]	41.5
CC1=C(C(=O)N[C@H](C(=O)OC(C)(C)C)C(C)C)C(c2cccc([N+](=O)[O-])c2)C(C(=O)OC(C)C)=C(C)N1 (stereo partly shown) [Example 49]	38.9
COC(=O)C1=C(C)NC(C)=C(C(=O)NCC(=O)N2CCCC2)C1c1cccc([N+](=O)[O-])c1 (stereo not shown) [Example 57, methyl 1,4-dihydro-2,6-dimethyl-4-(3-nitrophenyl)-5-[N-[(pyrrolidin-1-yl)carbonylmethyl]carbamoyl]pyridine-3-carboxylate]	64.5
COC(=O)C1=C(C)NC(C)=C(C(=O)NCC(=O)N2CCN(c3ccccc3)CC2)C1c1cccc([N+](=O)[O-])c1 (stereo not shown) [Example 58, methyl 1,4-dihydro-2,6-dimethyl-4-(3-nitrophenyl)-5-[N-[(4-phenylpiperazinyl)carbonylmethyl]-carbamoyl]pyridine-3-carboxylate]	22.1
COCCOC(=O)CNC(=O)C1=C(C)NC(C)=C(C(=O)OC)C1c1cccc([N+](=O)[O-])c1 (stereo not shown) [Example 60]	47.2
CCOC(=O)CNC(=O)C1=C(C)NC(C)=C(C(=O)OC)C1c1cccc([N+](=O)[O-])c1 (stereo not shown) [Example 62, ethyl 2-[N-[1,4-dihydro-2,6-dimethyl-5-methoxycarbonyl-4-(3-nitropheny1)pyridine-3-carbonyl]amino]-acetate]	64.3
COC(=O)C1=C(C)NC(C)=C(C(=O)NCC(=O)OC(C)C)C1c1cccc([N+](=O)[O-])c1 (stereo not shown) [Example 63, isopropyl 2-[N-[1,4-dihydro-2,6-dimethyl-5-methoxycarbonyl-4-(3-nitrophenyl)pyridine-3-carbonyl]-amino]acetate]	100
CCOC(=O)CCNC(=O)C1=C(C)NC(C)=C(C(=O)OC)C1c1cccc([N+](=O)[O-])c1 (stereo not shown) [Example 64, ethyl 3-[N-[1,4-dihydro-2,6-dimethyl-5-methoxycarbonyl-4-(3-nitrophenyl)pyridine-3-carbonyl]amino]-propionate]	52.6
CCOC(=O)CN(C)C(=O)C1=C(C)NC(C)=C(C(=O)OC)C1c1cccc([N+](=O)[O-])c1 (stereo not shown) [Example 65]	42.7
COC(=O)C1=C(C)NC(C)=C(C(=O)NCC(=O)N[C@H](C(=O)OC(C)(C)C)C(C)C)C1c1cccc([N+](=O)[O-])c1 (stereo partly drawn) [Example 66, t-butyl 2-(S)-[N-[[N-[1,4-dihydro-2,6-dimethyl-5-methoxycarbonyl-4-(3-nitrophenyl)pyridine-3-carbonyl]amino]acetyl]amino]-3-methylbutylate]	100
